This is an account of results in US20080118493A1, “Elevated Hedgehog Pathway Activity In Digestive System Tumors, And Methods Of Treating Digestive Sytem Tumors Having Elevated Hedgehog Pathway Activity” (priority 2003, published 2008).

Data set [1] relates to PZp53MED1 medulloblastoma cells. As to conditions: medulloblastoma-derived cells; cited from earlier work.
For data set [2], the system named is Hh pathway activity. The data set is described as follows: Hh-responsive reporter assay in first passage pancreas carcinoma xenograft cells. It is filed as cell-based, human. As to conditions: PTCH-expressing primary xenografts; 3.0 μM cyclopamine. The source says:
(§1) Cells and tissues: Origins and sources of cells and tissues are described in the Table (below). First passage pancreatic cancer xenografts were derived from freshly harvested pancreaticoduodenectomy specimens as described^14. […] After reaching 25 mm in greatest dimension, xenograft tumors were harvested, minced, and plated into tissue culture vessels in RPMI, 20% Fetal Bovine Serum (FBS) for assays as described below. The diagnosis of frozen samples from gastric and pancreatic adenocarcinoma resections and adjacent normal stomach and pancreas was microscopically confirmed by two pathologists, and RNA was prepared as described^14.
(§2) Hh-responsive reporter assays: Hh-responsive firefly luciferase and control SV-40 Renilla luciferase reporter assays were performed on subconfluent triplicate cultures as described^22.
For orientation: A reporter such as luciferase makes a cellular process visible.

Data set [3] has as its system tumor cell lines from esophagus, stomach, biliary tract, and pancreas. As to the kind of experiment: cells. The method, then: Viable cell mass was determined by optical density measurements at 490 nm (O.D.490) at 2 and 4 days using the CellTiter96® colorimetric assay (Promega; Madison Wis.). Relative growth was calculated as {OD (day 4)-OD (day 2)}/OD (day 2).
Data set [4] deals with HuCCT1 human cholangiocarcinoma xenograft. The data set is described as follows: HuCCT1 xenograft treatment in athymic (nude) mice. The class given is in vivo. As to conditions: 50 mg/kg/day, subcutaneous injection.
Data set [5] deals with single passage pancreatic cancer xenograft cells. As to the kind of experiment: Proliferation (MTS) assay in first passage pancreatic cancer xenograft cells. The class given is cell-based, human.
Source text: as §1

Data set [6] has as its system PZp53MED1 medulloblastoma cells. The data set is described as follows: Proliferation assay in medulloblastoma cells. The class given is cell-based. As to conditions: medulloblastoma cells from a mouse model of Gorlin syndrome, loss of PTCH function.
The test system of data set [7] is Hh pathway activity. The data set is described as follows: Hh-inducible reporter assay in HuCCT1 cholangiocarcinoma cells. As to conditions: purified SHH ligand to 25 nM. It is filed as cell-based, human. The method, then:
as §2

In general, inhibition refers to the percentage by which the read-out fell short of the control. `CC1=C2C[C@H]3[C@@H](CC=C4C[C@@H](O)CC[C@@]43C)[C@@H]2CC[C@]12O[C@@H]1C[C@H](C)CN[C@H]1[C@H]2C` [cyclopamine]: the cell killing result in data set [1] is “can be killed by cyclopamine treatment”. Besides, in the data set on Hh pathway activity [2], the GLI reporter expression entry is given as “cyclopamine-sensitive”. The “significant growth inhibition, dependence on PTCH mRNA expression” value in data set [3] (3.0 μM cyclopamine, MTS assay) is reported as “only in tumor lines expressing PTCH mRNA”. The inhibition at 3 µM in data set [3] (Homo sapiens, read-out: growth inhibition) was in the range of 75 to 95%. The “survival and adverse reactions” value in data set [4] (daily) was “all mice survived cyclopamine treatment without obvious adverse reactions”. Moreover, the “tumor regression (xenograft tumor volume)” value in data set [4] (within 14 days, tumors grown to 180 mm^3, n=9) is on record as “Complete or near complete regression of all nine treated tumors”.

As for “SHH ligand: recombinant doubly lipid modified Sonic hedgehog (ShhNp) peptide”, the “growth as a function of added SHH concentration” value in data set [5] (PX184 cells with 5E1 at a level just sufficient to block growth (0.1 μg/ml)) is “Growth correlated positively with increasing concentrations”. In addition, the growth entry in data set [5] (single passage pancreatic tumor xenograft that did not express PTCH mRNA (PX169)) is “did not significantly affect growth”. In addition, the change in growth result in data set [6] is “No significant ligand-induced or antibody-induced change in growth”. Besides, the “augmentation of reporter activity” value with Hh pathway activity [7] is on record as “approximately 8 fold”.
